This is an account of results in PubChem BioAssay AID504864 (NMMLSC, 2011).

Calls of active or inactive are those of the source.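 How the source made its calls: active means normalized viability below 40% relative to DMSO and staurosporine controls, called cytotoxic; inactive means the rest.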

The test concerns ConA-stimulated mouse T cells viability, FDA flow cytometry, 24 h. As to the kind of experiment: viability of concanavalin A-activated mouse T cells – cell-based, concanavalin A stimulation, cytotoxicity control for T cell immune modulator project (AID 504864). Conditions: at 20 µM; active compounds read low.
By viability is commonly meant a read-out of living cells in per cent, often relative to untreated cells. On to `COc1ccc(S(=O)(=O)N2CCCC2C(=O)Nc2ccc(C(C)=O)cc2)cc1` (stereo not drawn), for which the viability is 94.9% (inactive).
To `O=C(NNS(=O)(=O)c1ccc2ccccc2c1)c1cccs1` belongs 100% (inactive); to `O=C(COC(=O)C12CC3CC(CC(Br)(C3)C1)C2)Nc1cccc(S(=O)(=O)N2CCOCC2)c1`, 96.9% (inactive).
As for `CC(=O)c1ccc(-c2csc(N3CCC(C(N)=O)CC3)n2)cc1`, the figure is 91.6% (inactive); as for `O=C(c1ccc(N2C(=O)C3CC=C(Cl)CC3C2=O)cc1)N1CCCCC1` (stereo not drawn), 6.85%.
`O=C(O)C1CCC(Cn2c(SCc3cc(=O)n4cc(Cl)ccc4n3)nc3ccsc3c2=O)CC1` (stereo not drawn): the viability was 71.6% (inactive).
To `O=C(OCCOc1cccc(Cl)c1)c1ccc(F)c(S(=O)(=O)N2CCOCC2)c1` belongs 85% (inactive); to `COc1ccc(C(O)c2coc3ccc(O)c(CN(C)C)c23)cc1` (stereo not drawn), 88% (inactive).
To `CCN(CC)C(=O)N1CCN(S(=O)(=O)c2ccc(C)cc2)CC1` belongs 105% (inactive).
For the compound `CC(=O)Nc1ccc(S(=O)(=O)NC2CCSc3ccccc32)cc1` (stereo not drawn), the viability was 98.5% (inactive).
To `CN(C)S(=O)(=O)c1ccc(C(=O)NCCc2ccco2)cc1` belongs 91.8% (inactive).
For `COc1ccc(S(=O)(=O)N2CCCCC2)cc1NC(=O)c1cnc(C)cn1`, the viability was 102% (inactive).
To `O=C(NCc1cccnc1)C(=O)NCC(c1ccco1)N1CCN(c2ccccc2)CC1` (stereo not drawn) belongs 101% (inactive).
As for `CCCc1nnc(NC(=O)c2ccc(S(=O)(=O)N(C)c3ccccc3OC)cc2)s1`, the figure is 89.7% (inactive); as for `COc1ccccc1NS(=O)(=O)c1cc(NC(=O)CNC(=O)c2cc(C)cc(C)c2)ccc1C`, 111% (inactive).
As for `CCOC(=O)c1ccc(NC(=O)CN2C(=O)NC3(CCCCCCC3)C2=O)cc1`, the viability was 91.1% (inactive).
To `CC1CCCCC1NC(=O)COC(=O)c1ccc2ncsc2c1` (stereo not drawn) belongs 90.9% (inactive); to `Cc1ccc(Cn2c([N+](=O)[O-])cnc2C)cc1`, 110% (inactive); to `COC(=O)c1ccccc1NC(=O)C1CCN(C(=O)c2cc(OC)cc(OC)c2)CC1`, 103% (inactive).
To `CN1CCN(S(=O)(=O)c2cccc(C(=O)Nc3cc(C(F)(F)F)ccc3N3CCCCC3)c2)CC1` belongs 56.9% (inactive); to `Cc1ccccc1C(=O)NCC(=O)N1CCN(C/C=C/c2ccccc2)CC1`, 100% (inactive).
To `CCN(CC)CCNC(=O)CCCNC(=O)Cn1cnc2sc(C)c(C)c2c1=O` belongs 98.7% (inactive); to `COc1ccc(CNC(=O)c2cccnc2SC)cc1OC`, 75.5% (inactive); to `Cc1cc(Cl)c(OCCCSc2nc(C)cc(=O)[nH]2)c(Br)c1`, 103% (inactive).
Turning to `NC(=O)C1CCN(c2nc(-c3cc4ccccc4o3)cs2)CC1`, the viability is 88.8% (inactive).
With `COc1ccc(/C=C2\SC(=S)N(CCC(=O)N3CCOCC3)C2=O)cc1`, the viability is 78.4% (inactive).
As for `CCN(CC)S(=O)(=O)c1ccc(Cl)c(NC(=O)COC(=O)C2CCCCC2)c1`, the figure is 106% (inactive); as for `COc1ccc(N2CC(C(=O)NC(C)C(=O)NCc3ccccc3OC)CC2=O)cc1` (stereo not drawn), 88.2% (inactive); as for `CN1CCN(S(=O)(=O)c2ccc(C(=O)Nc3ccccc3)cc2)CC1`, 93.5% (inactive).
To `CN(C)S(=O)(=O)c1cccc(-n2sc3ccccc3c2=O)c1` belongs 12.1%.
In the case of `COCc1c(C(=O)Nc2cccc(S(=O)(=O)N3CCCCC3)c2)oc2ccccc12`, the viability was 58.7% (inactive).
To `COCCCN1CCc2[nH]c(=S)[nH]c(=O)c2C1` belongs 95.4% (inactive).
Turning to `Cc1ccc(O)c(CCc2ccccc2)n1`, the viability is 96.7% (inactive).
On to `CCCCOc1ccc(C(=O)NCC(=O)N2CCN(C(=O)c3ccco3)CC2)cc1`, for which the viability was 85.5% (inactive).
To `O=C(NCC1CCCCC1)c1ccc(Cl)c(S(=O)(=O)N2CCOCC2)c1` belongs 78.3% (inactive); to `CCOC(=O)c1c(N2C(=O)CC(Sc3ccccc3C(=O)O)C2=O)sc2c1CCCC2` (stereo not drawn), 94.2% (inactive); to `O=C(CCC(=O)N1CCOCC1)NCc1cccc(C(F)(F)F)c1`, 98% (inactive).
To `COc1ccc(NC(=O)CC2C(=O)N(Cc3ccccc3)C(=S)N2CCN2CCOCC2)cc1` (stereo not drawn) belongs 100% (inactive); to `O=C(Cn1cc(C(F)(F)F)cc(Cl)c1=O)NCCc1ccc(Cl)cc1Cl`, 102% (inactive).
`Cc1ccc(S(=O)(=O)N2CCN(C(=O)CNC(=O)c3ccc(Cl)cc3)CC2)cc1`: the viability is 33.2%.
For the compound `Cc1ccc(C(=O)NCCCN2CCOCC2)c(C)c1`, the viability was 96.3% (inactive).
To `O=C(NCCC1=CCCCC1)C(=O)NCC(c1ccco1)N1CCN(c2ccccc2F)CC1` (stereo not drawn) belongs 73.6% (inactive).
To `Cc1sc2ncnc(NCC(C)(C)N3CCOCC3)c2c1C` belongs 101% (inactive); to `CCOc1ccc(CCNC(=O)CCS(=O)(=O)c2ccc(C)cc2)cc1OCC`, 85.5% (inactive).
As for `COc1ccc(Nc2ccccc2N)cc1`, the figure is 21.9%; as for `COc1ccc(NC(=O)CSCC(=O)Nc2cccc(S(=O)(=O)N3CCCCCC3)c2)cc1`, 86.6% (inactive); as for `CCCCn1nc(C(=O)N2CCN(S(=O)(=O)c3ccccc3)CC2)c2ccccc2c1=O`, 98.2% (inactive).
On to `O=C(CS(=O)(=O)Cc1ccccc1)N1CCc2ccccc21`, for which the viability is 106% (inactive).
As for `Cc1cc(=O)oc2c3c(cc(OCC(=O)NCc4ccncc4)c12)OC(C)(C)CC3`, the figure is 106% (inactive); as for `COc1cccc(NC(=O)Nc2ccc3nc(C)c(C)nc3c2)c1`, 100% (inactive).
As for `Cc1ncc([N+](=O)[O-])n1Cc1cccc(F)c1`, the figure is 116% (inactive); as for `CC(Sc1nc2ccccc2[nH]1)C(=O)NC1CCCCC1C` (stereo not drawn), 101% (inactive); as for `CCCNC(=O)c1nc2ncc(Br)cn2n1`, 101% (inactive).
As for `CCOC(=O)c1ccc(S(=O)(=O)N2CCN(C3CCCC3)CC2)cc1`, the figure is 90.7% (inactive); as for `Cc1ccc(OCCOC(=O)c2cc(S(=O)(=O)N3CCCCC3)ccc2N2CCOCC2)cc1`, 48.6% (inactive).
Consider `O=C(NCCN1CCN(c2ccccc2)CC1)c1cccc(Br)c1`, for which the viability was 86.2% (inactive).
As for `CCOCC(=O)Nc1ccc(S(=O)(=O)N2CCC(c3nc4ccccc4[nH]3)CC2)cc1`, the figure is 94% (inactive).
To `COc1ccc(C2=Nc3cc(C)ccc3OC2)cc1` belongs 94.5% (inactive).
As for `COc1ccc([N+](=O)[O-])cc1NC(=O)c1ccc(N(Cc2ccccc2C)S(C)(=O)=O)cc1`, the figure is 90.9% (inactive); as for `CC(C)(C)NC(=O)COc1ccc(CNCc2cccnc2)cc1`, 91.1% (inactive); as for `Cc1ccc(N2CC(C(=O)NC3=NCCS3)CC2=O)cc1` (stereo not drawn), 93.6% (inactive).
As for `CCC1(C)NC(=O)N(CC(=O)N2N=C(c3ccccc3)CC2c2ccc(OC)cc2)C1=O` (stereo not drawn), the viability is 93.6% (inactive).
To `CCOC(=O)C1CCCN(S(=O)(=O)c2ccc(F)c(C(=O)Nc3ccc(F)c(F)c3)c2)C1` (stereo not drawn) belongs 74.5% (inactive).
As for `CCOC(=O)c1c(C=O)c2ccccc2n1CC`, the figure is 91.6% (inactive).
`CCC(C(=O)Nc1ccccc1)c1ccccc1` (stereo not drawn): the viability was 104% (inactive).
Consider `Cc1cc(C)n(C(=O)c2sc3cc(F)ccc3c2Cl)n1`, for which the viability is 87.8% (inactive).
To `COc1ccccc1CNC(=O)COc1ccc(C)cc1` belongs 98.7% (inactive); to `Cc1cccc(NC(=O)C2CCN(S(=O)(=O)c3c(C)[nH]c(=O)[nH]c3=O)CC2)c1`, 96% (inactive); to `O=C1CC(c2nc3ccccc3[nH]2)CN1Cc1ccccc1` (stereo not drawn), 110% (inactive).
For `Cc1ccccc1C(=O)N1CCC(C(=O)Nc2ccc(C)c(S(=O)(=O)N3CCCCC3)c2)CC1`, the viability was 82.2% (inactive).
For `O=C(CC1=NCCNC(c2ccccc2)C1)c1ccccc1O` (stereo not drawn), the viability is 75% (inactive).
As for `CCOc1ccc(-c2nc(N)ncc2-c2ccccc2)c(O)c1`, the figure is 83.1% (inactive); as for `CN(CC(=O)Nc1cc(S(=O)(=O)N2CCCC2)ccc1Cl)Cc1ccc2c(c1)OCO2`, 78.3% (inactive); as for `c1ccc(COc2ccc(OCCN3CCCCC3)cc2)cc1`, 112% (inactive).
As for `Cn1c(CNC(=O)CNC(=O)c2ccc(F)cc2)cc(=O)n(C)c1=O`, the figure is 96.3% (inactive); as for `CCOC(=O)N1CCN(C(=O)c2ccc(CS(=O)Cc3ccc(C)cc3)o2)CC1` (stereo not drawn), 98.2% (inactive).
As for `Cc1ccc(NC(=O)COC(=O)CCc2c[nH]c3ccccc23)c(C)c1`, the figure is 97.2% (inactive); as for `Cc1ccc(S(=O)(=O)N2CCN(S(=O)(=O)N(C)C)CC2)c(C)c1`, 84.8% (inactive).
